Source: patent US9693942B2 (NESTEC S.A., priority 2012, dated 2017)

Assays:
B16 murine melanocytes = assay: Production of melanin by B16 murine melanocyte cell line; type: cell-based; conditions: kojic acid 400 μg/mL, 72 hours, B16 cells, total melanin (extracellular and intracellular), OD 405 nm
Description: B16 cells were cultured in DMEM 1 g/L glucose without phenol red supplemented with 10% foetal calf serum, in a humidified chamber at 37° C. and containing 5% CO2. […] This was performed in the presence or absence of NDP-MSH, an analog of MSH (melanocyte-stimulating hormone). The total quantity of melanin (extracellular and intracellular) was evaluated by measuring the optical density at 405 nm of each sample against melanin standards in the presence or absence of NDP-MSH. The control condition corresponds to a culture of B16 murine melanocytes treated just with the medium, no other compound being added.

tyrosinase = assay: Production of tyrosinase by B16 murine melanocyte cell line (immunolabeling); type: cell-based; conditions: kojic acid 400 μg/mL, 48 hours, B16 cells
Description: B16 cells were cultured in DMEM 1 g/L glucose without phenol red supplemented with 10% foetal calf serum, in a humidified chamber at 37° C. and containing 5% CO2. […] The production of tyrosinase was evaluated by immunolabeling. The control condition corresponds to a culture of B16 murine melanocytes treated just with the medium, no other compound being added.

## O=c1cc(CO)occ1O [kojic acid]
B16 murine melanocytes
  melanin production, percentage relative to the control: 48%
tyrosinase
  production of tyrosinase relative to the control: decreased
